Like-named read-outs stand apart in the source and are kept apart here.
Experiments:
in vitro [1] = details: human
HEV-3 replicon p6-Gluc = assay: microbe, parasite or virus in culture; type: cell-based, Hepatitis E virus; details: Hepatitis E virus
RVFV strain MP-12 = assay: microbe, parasite or virus in culture; type: cell-based; details: Rift Valley fever virus
in vitro [2] = details: human; remark: listed apart in the source
SARS-CoV-2 = assay: microbe, parasite or virus in culture; type: cell-based
CHIKV LR2006-OPY1 = assay: microbe, parasite or virus in culture; type: cell-based; details: Chikungunya virus
Huh-7 cells = details: human
Vero E6 cells = details: African green monkey (Chlorocebus sp.)
in vitro [3] = assay: in vitro
[4] = HepG2, 24 h, read-out: HEV, EC90 (24 h, nM)
[5] = HepG2, 48 h, read-out: HEV, EC90 (48 h, nM)2
[6] = Severe acute respiratory syndrome coronavirus 2, Vero C1008, 24 h
[7] = Severe acute respiratory syndrome coronavirus 2, Vero C1008, 48 h
[8] = African green monkey (Chlorocebus sp.)

Structure (SMILES)	EC50 (HEV-3 replicon p6-Gluc; HepG2, 24 h) [nM]	EC90 (HEV-3 replicon p6-Gluc; HepG2, 24 h) [nM]	EC50 (HEV-3 replicon p6-Gluc; HepG2, 48 h) [nM]	EC90 (HEV-3 replicon p6-Gluc; HepG2, 48 h) [nM]	CC50 at 24 h (in vitro [1]) [nM]	CC50 at 48 h (in vitro [1]) [nM]	also measured
COC(=O)[C@H]1[C@@H](O)[C@@]2(O)c3c(F)cc(F)cc3O[C@@]2(c2ccc(OC)cc2)[C@@H]1c1ccccc1 (racemic) [9c, (±)-Methyl (1R,2R,3S,3aR,8bS)-6,8-difluoro-1,8b-dihydroxy-3a-(4-methoxyphenyl)-3-phenyl-2,3,3a,8b-tetrahydro-1H-cyclopenta[b]benzofuran-2-carboxylate]	> 1000	> 1000	> 1000	> 1000			CC50 (in vitro [1]): > 1000 nM; EC50 (HEV-3 replicon p6-Gluc; HepG2, 24 h, read-out: HEV, EC50 (24 h, nM)): > 1000 nM; EC90 (HEV-3 replicon p6-Gluc; [4]): > 1000 nM; EC50 (HEV-3 replicon p6-Gluc; HepG2, 48 h, read-out: HEV, EC50 (48 h, nM)): > 1000 nM; EC90 (HEV-3 replicon p6-Gluc; [5]): > 1000 nM; CC50 (HepG2 cells; read-out: HEP2G, CC50 (24 h), 24 h): > 1000 nM; CC50 (HepG2 cells; read-out: HEP2G, CC50 (48 h), 48 h): > 1000 nM
COC(=O)[C@H]1[C@@H](O)[C@@]2(O)c3c(Cl)cc(Cl)cc3O[C@@]2(c2ccc(OC)cc2)[C@@H]1c1ccccc1 (racemic) [9da, (±)-Methyl (1R,2R,3S,3aR,8bS)-6,8-dichloro-1,8b-dihydroxy-3a-(4-methoxyphenyl)-3-phenyl-2,3,3a,8b-tetrahydro-1H-cyclopenta[b]benzofuran-2-carboxylate]	25.4	642	17.5	725	798	149	EC50 (RVFV strain MP-12; Vero C1008, 24 h): 102 nM; EC90 (RVFV strain MP-12; Vero C1008, 24 h): 227 nM; EC50 (RVFV strain MP-12; Vero C1008, 48 h): 143 nM; EC90 (RVFV strain MP-12; Vero C1008, 48 h): 217 nM; CC50 (in vitro [2]): > 1000 nM; EC50 (SARS-CoV-2; [6]): 111 nM; EC90 (SARS-CoV-2; [6]): 387 nM; EC50 (SARS-CoV-2; [7]): 176 nM; EC90 (SARS-CoV-2; [7]): 558 nM; EC50 (CHIKV LR2006-OPY1; Huh-7, 24 h): 18.1 nM; EC90 (CHIKV LR2006-OPY1; Huh-7, 24 h): 83.4 nM; EC50 (CHIKV LR2006-OPY1; Huh-7, 48 h): 22.4 nM; EC90 (CHIKV LR2006-OPY1; Huh-7, 48 h): 92.3 nM; CC50 (Huh-7 cells): > 1000 nM; CC50 (Vero E6 cells): > 1000 nM; CC50 (in vitro [3]; [8]): > 1000 nM; CC50 (in vitro [3]; chlorocebus sabaeus, CC50): > 1000 nM
CONC(=O)[C@H]1[C@@H](O)[C@@]2(O)c3c(Cl)cc(Br)cc3O[C@@]2(c2ccc(OC)cc2)[C@@H]1c1ccccc1 (racemic) [14f, (±)-(1R,2R,3S,3aR,8bS)-6-Bromo-8-chloro-1,8b-dihydroxy-N-methoxy-3a-(4-methoxyphenyl)-3-phenyl-2,3,3a,8b-tetrahydro-1H-cyclopenta[b]benzofuran-2-carboxamide]	4.6	53.4	2.6	30.2	407	15.6	EC50 (RVFV strain MP-12; Vero C1008, 24 h): 42.1 nM; EC90 (RVFV strain MP-12; Vero C1008, 24 h): 92.5 nM; EC50 (RVFV strain MP-12; Vero C1008, 48 h): 106 nM; EC90 (RVFV strain MP-12; Vero C1008, 48 h): 113 nM; CC50 (in vitro [2]): > 1000 nM; EC50 (SARS-CoV-2; [6]): 51.4 nM; EC90 (SARS-CoV-2; [6]): 920 nM; EC50 (SARS-CoV-2; [7]): 190 nM; EC90 (SARS-CoV-2; [7]): 340 nM; EC50 (CHIKV LR2006-OPY1; Huh-7, 24 h): 3.1 nM; EC90 (CHIKV LR2006-OPY1; Huh-7, 24 h): 19 nM; EC50 (CHIKV LR2006-OPY1; Huh-7, 48 h): 3.4 nM; EC90 (CHIKV LR2006-OPY1; Huh-7, 48 h): 20.2 nM; CC50 (Huh-7 cells): > 1000 nM; CC50 (in vitro [3]; [8]): > 1000 nM; CC50 (in vitro [3]; chlorocebus sabaeus, CC50): > 1000 nM
COCOc1cc(F)c2c(c1)O[C@@]1(c3ccc(Br)cc3)[C@H](c3ccccc3)[C@@H](C(=O)OC)[C@@H](O)[C@@]21O (racemic) [9nb, (±)-Methyl (1R,2R,3S,3aR,8bS)-3a-(4-bromophenyl)-8-fluoro-1,8b-dihydroxy-6-(methoxymethoxy)-3-phenyl-2,3,3a,8b-tetrahydro-1H-cyclopenta[b]benzofuran-2-carboxylate]	86.9	345	63.2	298	727	113	
COC(=O)[C@H]1[C@@H](O)[C@@]2(O)c3c(OC)cc(OC)cc3O[C@@]2(c2ccc(F)cc2)[C@@H]1c1ccccc1 (racemic) [11ba, (±)-Methyl (1R,2R,3S,3aR,8bS)-3a-(4-fluorophenyl)-1,8b-dihydroxy-6,8-dimethoxy-3-phenyl-2,3,3a,8b-tetrahydro-1H-cyclopenta[b]benzofuran-2-carboxylate]	338	> 1000	334	> 1000		421	CC50 (in vitro [1]): > 1000 nM; EC90 (HEV-3 replicon p6-Gluc; [4]): > 1000 nM; EC90 (HEV-3 replicon p6-Gluc; [5]): > 1000 nM
CONC(=O)[C@H]1[C@@H](O)[C@@]2(O)c3c(F)cc(OC)cc3O[C@@]2(c2ccc(OC)cc2)[C@@H]1c1ccccc1 (racemic) [14hb, (±)-(1R,2R,3S,3aR,8bS)-8-Fluoro-1,8b-dihydroxy-N,6-dimethoxy-3a-(4-methoxyphenyl)-3-phenyl-2,3,3a,8b-tetrahydro-1H-cyclopenta[b]benzofuran-2-carboxamide]	17.2	91.2	10.9	69.8	491	27.5	
COc1cc(OC)c2c(c1)O[C@@]1(c3ccc(F)cc3)[C@H](c3ccccc3)[C@@H](C(=O)N(C)C)[C@@H](O)[C@@]21O (racemic) [14baa, (±)-(1R,2R,3S,3aR,8bS)-3a-(4-fluorophenyl)-1,8b-dihydroxy-6,8-dimethoxy-N,N-dimethyl-3-phenyl-2,3,3a,8b-tetrahydro-1H-cyclopenta[b]benzofuran-2-carboxamide]	229	> 1000	208	829	966	297	
COC(=O)[C@H]1[C@@H](O)[C@@]2(O)c3c(F)cc(OC)cc3O[C@@]2(c2ccc(OC)cc2)[C@@H]1c1ccccc1 (racemic) [9h, (±)-Methyl (1R,2R,3S,3aR,8bS)-8-fluoro-1,8b-dihydroxy-6-methoxy-3a-(4-methoxyphenyl)-3-phenyl-2,3,3a,8b-tetrahydro-1H-cyclopenta[b]benzofuran-2-carboxylate]	61	> 1000	64.3	634		163	CC50 (in vitro [1]): > 1000 nM
CONC(=O)[C@H]1[C@@H](O)[C@@]2(O)c3c(OC)cc(Br)cc3O[C@@]2(c2ccc(OC)cc2)[C@@H]1c1ccccc1 (racemic) [14m, (±)-(1R,2R,3S,3aR,8bS)-6-Bromo-1,8b-dihydroxy-N,8-dimethoxy-3a-(4-methoxyphenyl)-3-phenyl-2,3,3a,8b-tetrahydro-1H-cyclopenta[b]benzofuran-2-carboxamide]	1	328	0.2	1.6	748	1	
COC(=O)[C@H]1[C@@H](O)[C@@]2(O)c3c(OC)cc(O[C@@H]4O[C@@H]([C@H](O)CO)CO[C@H]4OC)cc3O[C@@]2(c2ccc(OC)cc2)[C@@H]1c1ccccc1 [(−)-silvestrol (2a), silvestrol, reference compound]	4.2	40.5	2.2	28.1	180	13.4	
COC(=O)[C@H]1[C@@H](O)[C@@]2(O)c3c(OC)cc(Cl)cc3O[C@@]2(c2ccc(OC)cc2)[C@@H]1c1ccccc1 (racemic) [9k, (±)-Methyl (1R,2R,3S,3aR,8bS)-6-chloro-1,8b-dihydroxy-8-methoxy-3a-(4-methoxyphenyl)-3-phenyl-2,3,3a,8b-tetrahydro-1H-cyclopenta[b]benzofuran-2-carboxylate]	5.4	45.1	2.5	45.5	443	19.9	
COC(=O)[C@H]1[C@@H](O)[C@@]2(O)c3c(Cl)cc(Br)cc3O[C@@]2(c2ccc(OC)cc2)[C@@H]1c1ccccc1 (racemic) [9f, (±)-Methyl (1R,2R,3S,3aR,8bS)-6-bromo-8-chloro-1,8b-dihydroxy-3a-(4-methoxyphenyl)-3-phenyl-2,3,3a,8b-tetrahydro-1H-cyclopenta[b]benzofuran-2-carboxylate]	9.9	583	14.9	454	663	61	

Source: PMC10788925 (Journal of Medicinal Chemistry, 2023)
